Data on 9 molecules can be found in patent US11168302B2, “Method for differentiation into retinal ganglion cells from stem cells” (ClavisTherapeutics, INC., priority 2014, dated 2021).

Assay [1] concerns outward potassium current. Briefly: Whole-cell patch clamp recording of potassium current in stem cell-derived retinal ganglion cells. It is filed as cell-based, human. The note with it: Protocol A, 4-AP 1 mM.
The subject of assay [2] is human embryonic stem cell-derived retinal ganglion cells. Briefly: Differentiation by other Wnt signaling pathway and Shh receptor activators, immunofluorescence of Islet-1 and NF200. It is filed as cell-based. The following applies: day 39, Protocol A schedule; BIO 2 μM, Norrin 50 ng/mL, purmorphamine 1 μM, RA 500 nM. Here is the method:
On day 14 after induction of differentiation, retinal progenitor cells generated in Example 3 were cultured and differentiated into immature retinal ganglion cells for 3 days in a differentiation medium [DMEM/F12 (Invitrogen), 1 mM L-glutamine (Invitrogen), 0.1 mM nonessential amino acids (Invitrogen), 0.1 mM mercaptoethanol (Sigma-Aldrich), 1% B27 supplement (Invitrogen), 1% N2 supplement (Invitrogen), 10 ng/mL Noggin, 10 ng/mL IGF-1, 5 ng/mL FGF2, 50 ng/mL recombinant Wnt3a (R&D Systems)] containing 2 μM BIO (6-bromoindirubin-3′-oxime) or 50 ng/mL Norrin as the Wnt signaling pathway activator instead of 50 ng/mL recombinant Wnt3a. On day 17 after induction of differentiation, immature retinal ganglion cells thus generated were cultured and differentiated into mature retinal ganglion cells for 5 days in a differentiation medium [DMEM/F12 (Invitrogen), 1 mM L-glutamine (Invitrogen), 0.1 mM nonessential amino acids (Invitrogen), 0.1 mM mercaptoethanol (Sigma-Aldrich), 1% B27 supplement (Invitrogen), 1% N2 supplement (Invitrogen), 10 ng/mL IGF-1, 250 ng/mL recombinant Shh (R&D Systems)] containing 1 μM purmorphamine as the Shh receptor activator instead of 250 ng/mL Shh. On day 22 after induction of differentiation, the mature retinal ganglion cells were matured for 39 days using a medium prepared by adding 500 nM retinoic acid (RA) to the above differentiation medium.
The immunofluorescence assay of the cells generated by this method was performed using retinal ganglion cell markers, Islet-1 and NF200, and the results were consistent with the results of using Wnt3a and Shh (FIG. 21).

The test system of a further assay is AMPA receptor. Briefly: Recording of spontaneous excitatory postsynaptic currents (sEPSCs) in stem cell-derived retinal ganglion cells. The note with it: H9-derived RGCs, CNQX 50 μM. It is filed as cell-based, human.
For assay [3], the system named is human pluripotent stem cell-derived retinal ganglion cell line. Briefly: Live cell Ca2+ imaging of retinal ganglion cell line. The following applies: 1 mM glutamate stimulation; Fluo-4; passaged cell line. It is filed as cell-based. Here is the method: For calcium imaging, cells cultured on 18 mm coverslip were washed with Tyrode's solution (119 mM NaCl, 2.5 mM KCl, 2 mM CaCl2), 2 mM MgCl2, 25 mM HEPES, 30 mM glucose, pH 7.4) twice or three times, and then cultured at 37° C. with addition of 1 μM Fluo-4-AM (Life technologies, Carlsbad, Calif., USA). After culturing for 15 min, cells were washed with Tyrode's solution for 10 min. Time differential images were obtained by using an Olympus IX-71 inverted microscope (Olympus, Tokyo, Japan) equipped with 40×(1.0 NA) oil lens and EMCCD (iXon887, Andor Technologies, Belfast, Northern Ireland) every 0.5 sec for 30 min. From the 10th image frame, cells were stimulated with 1 mM glutamate. After stimulation, cells were infused with Tyrode's solution.

The subject of assay [4] is voltage-gated sodium channel. In kind it is cell-based, human.
Another assay has as its system retinal ganglion cells. The assay can be described thus: Effects of Wnt3a, Shh and RA in Protocol A differentiation, immunofluorescence assay with retinal ganglion cell-specific markers. In kind it is cell-based, human. Further details: production of retinal ganglion cells: dose or concentration left out as unconfirmed. The following applies: day 39. Here is the method:
After being blocked for 90 min, the slides in each differentiation step were incubated overnight at 4° C. with antibodies specific to cells of each differentiation step as given in Table 1. Before use, these antibodies were diluted in a PBS solution containing 1% BSA and 0.25% Triton X-100. The cells cultured on the slides in each step were washed three times for 5 min with PBS and incubated at room temperature for 2 hr with species-specific secondary antibody conjugated with Cy3 (1:800, Jackson Immunoresearch Laboratory) or Alexa488 (1:500, Invitrogen) (Table 1). A standard material suitable for the primary and the secondary antibodies was used to examine non-specific staining or interaction between the antibodies. Thereafter, the cells were washed three times for 5 min with PBS, counterstained with DAPI (4′,6-diamidino-2 phenylindole) and mounted in Vectashield (Vector Laboratories), followed by visualization under an epifluorescence microscope (Nikon Eclipse, E800, Tokyo, Japan) and a confocal microscope (Zeiss LSM510, Carl Zeiss, Inc, Thornwood, N.Y., USA). 500 cells were counted from 20 microscopic fields randomly selected at 400 magnification and evaluated for positive responses to each antibody. Positive responses to antibodies were determined after at least three evaluations.
To examine effects of each of Wnt3a, Shh and RA used in the Protocol A differentiation method during production of retinal ganglion cells, respective factors were treated according to a differentiation schedule of Protocol A, and on day 39 after induction of differentiation, an immunofluorescence assay was performed using retinal ganglion cell-specific markers (FIG. 22).

Entries after “also recorded” stand apart in the source; their conditions may differ.

Take `Nc1ccncc1` [4-Aminopyridine, 4-aminopyridine]: the “fast-activating fraction of outward potassium current” value is “blocked” in assay [1] (H9-derived RGCs, day 59) and “blocked” in assay [1] (iPSC-derived RGCs, day 39).
Take `O=C1Nc2cc(Br)ccc2/C1=C1/Nc2ccccc2/C1=N\O` [BIO, 6-bromoindirubin-3′-oxime]: the “immunofluorescence staining of Islet-1 and NF200 compared with Wnt3a and Shh” value in assay [2] is “consistent with the immunofluorescence staining results of Wnt3a and Shh”.
For `N#Cc1cc2c(cc1[N+](=O)[O-])=NC(=O)C(=O)N=2` [CNQX, 6-cyano-7-nitroquinoxaline-2,3-dione], the “appearance of sEPSCs” value in the assay on AMPA receptor (Protocol A, day 59) is reported as “blocked”; with AMPA receptor (Protocol B, day 96), “blocked”.
Take `N[C@@H](CCC(=O)O)C(=O)O` [glutamate]: the cytoplasmic calcium level entry in assay [3] is recorded as “considerably increased; also recorded: considerable increase”.
On to `c1ccc2c(Oc3nc(Nc4ccc(N5CCOCC5)cc4)c4ncn(C5CCCCC5)c4n3)cccc2c1` [purmorphamine], for which, in assay [2], the “immunofluorescence staining of Islet-1 and NF200 compared with Wnt3a and Shh” value is “consistent with the immunofluorescence staining results of Wnt3a and Shh”.
With `NC1=N[C@H](O)[C@H]2[C@H]3O[C@]4(O)O[C@@H]([C@@H](O)[C@@]2(N1)[C@@H]4O)[C@]3(O)CO` [tetrodotoxin], the “fast-activating and inactivating inward sodium currents” value in assay [4] is “completely blocked”.

B1: Dkkl: Wnt3a antagonist; recombinant Dickkopf-1, Wnt signaling pathway inhibitor (protein, UniProt O94907 32-266, looked up)
Dickkopf-related protein 1: TLNSVLNSNAIKNLPPPLGGAAGHPGSAVSAAPGILYPGGNKYQTIDNYQPYPCAEDEECGTDEYCASPTRGGDAGVQICLACRKRRKRCMRHAMCCPGNYCKNGICVSSDQNHFRGEIEETITESFGNDHSTLDGYSRRTTLSSKMYHTKGQEGSVCLRSSDCASGLCCARHFWSKICKPVLKEGQVCTKHRRKGSHGLEIFQRCYCGEGLSCRIQKDHHQASNSSRLHTCQRH
As to B1, the “production of retinal ganglion cells” value with retinal ganglion cells (instead of Wnt3a days 14 to 17, Shh and RA per schedule) is recorded as “hardly produced”.

B2: Wnt3a: recombinant Wnt3a, Wnt signaling pathway activator (protein, UniProt P56704 19-352, looked up)
Protein Wnt-3a: SYPIWWSLAVGPQYSSLGSQPILCASIPGLVPKQLRFCRNYVEIMPSVAEGIKIGIQECQHQFRGRRWNCTTVHDSLAIFGPVLDKATRESAFVHAIASAGVAFAVTRSCAEGTAAICGCSSRHQGSPGKGWKWGGCSEDIEFGGMVSREFADARENRPDARSAMNRHNNEAGRQAIASHMHLKCKCHGLSGSCEVKTCWWSQPDFRAIGDFLKDKYDSASEMVVEKHRESRGWVETLRPRYTYFKVPTERDLVYYEASPNFCEPNPETGSFGTRDRTCNVSSHGIDGCDLLCCGRGHNARAERRREKCRCVFHWCCYVSCQECTRVYDVHTCK
For the molecule B2, in the assay on retinal ganglion cells (Protocol A schedule), the “caliber growth and fasciculation of axons (NF200 staining)” value is “delayed”; the “synaptogenesis and dendritic spine development (TUJ1 staining)” value was “no synaptogenesis and dendritic spine development”. Moreover, in the assay with retinal ganglion cells (factors treated per Protocol A schedule), the “retinal ganglion cells produced” value was no less than 80%.

B3: Norrin: Wnt signaling pathway activator; binds to Frizzled4 receptor (protein, UniProt Q00604 25-133, looked up)
Norrin: KTDSSFIMDSDPRRCMRHHYVDSISHPLYKCSSKMVLLARCEGHCSQASRSEPLVSFSTVLKQPFRSSCHCCRPQTSKLKALRLRCSGGMRLTATYRYILSCHCEECNS
Regarding B3, the “immunofluorescence staining of Islet-1 and NF200 compared with Wnt3a and Shh” value in assay [2] is “consistent with the immunofluorescence staining results of Wnt3a and Shh”.
